Values of other authors, collected in patent US20030116748A1, “Environmentally friendly compositions having anti-icing, deicing or graffiti prevention properties” (priority 1995, published 2003).
Read-outs that look alike come from different tables or passages of the source.

Experiments:
[1] = individual component at full concentration
[2] = for OSHA PEL: 8 hour time-weighted average

Compound: OCC(O)CO [Glycerin, 1,2,3-Propanetriol]
- Solubility in Water [1]: miscible

Compound: CC(C)O [Example 2-Propanol, 2-Propanol]
- Solubility in Water [1]: miscible
- OSHA PEL [2]: 400 ppm
- OSHA PEL ([2]; value in brackets): 980 mg/m^3
- NIOSH ([2]; 10 hour time-weighted average): 400 ppm
- NIOSH (STEL) ([2]; Short Term Exposure Limit): 500 ppm
- ACGIH TLV ([2]; time-weighted average): 400 ppm

Compound: CC(O)CO (centres unmarked) [Propylene Glycol, 1,2-propanediol]
- Permissible concentration limits, Air (Federal): 156 (Federal) mg/m^3

Compound: OCCO [Ethylene Glycol]
- Permissible concentration limits, Water (Arizona, Massachusetts, Maine): 5.50 (Arizona, mg/L
- Permissible concentration limits, Water (Connecticut): 0.10 (Connecticut) mg/L
- Permissible concentration limits, Air (Federal): 125 (Federal) mg/m^3
- Permissible concentration limits, Air (Massachusetts): 0.17 mg/m^3
- Permissible concentration limits, Air (Nevada): 2.98 (Nevada) mg/m^3
- Permissible concentration limits, Water (New Jersey): 0.29 (New Jersey) mg/L
- Permissible concentration limits, Air (North Dakota): 1.25 (North mg/m^3
- Permissible concentration limits, Water (U.S. EPA): 0.14 (U.S. EPA) mg/L
- Permissible concentration limits, Air (Virginia): 1.00 (Virginia) mg/m^3
